Activity calls are given as the source filed them. The rule behind the calls is not given here.
Assays:
[1] = tested on: Spodoptera litura; test: Acute insecticidal activity against fifth-instar Spodoptera litura larvae assessed as decrease in body elasticity at 50 to 400 ng applied topically; assay type: functional, organism-based
[2] = tested on: Spodoptera litura; test: Insecticidal activity against fifth-instar Spodoptera litura larvae assessed as mortality compound applied topically measured after 1 day; assay type: functional
[3] = tested on: Spodoptera litura; test: Acute insecticidal activity against fifth-instar Spodoptera litura larvae assessed as decrease in mobility at 50 to 400 ng applied topically; assay type: functional, organism-based
[4] = tested on: Spodoptera litura; test: Acute insecticidal activity against fifth-instar Spodoptera litura larvae assessed as mortality at 200 ng applied topically measured after 1 hr; assay type: functional, organism-based
[5] = tested on: Spodoptera litura; test: Acute insecticidal activity against fifth-instar Spodoptera litura larvae assessed as flaccid paralysis at 50 to 400 ng applied topically; assay type: functional, organism-based
[6] = tested on: Spodoptera litura; test: Acute insecticidal activity against fifth-instar Spodoptera litura larvae assessed as mortality at 400 ng applied topically measured after 1 hr; assay type: functional, organism-based
[7] = tested on: Spodoptera litura; test: Acute insecticidal activity against fifth-instar Spodoptera litura larvae assessed as mortality at 100 ng applied topically measured after 6 hr; assay type: functional
[8] = tested on: Spodoptera litura; test: Acute insecticidal activity against fifth-instar Spodoptera litura larvae assessed as mortality at 400 ng applied topically measured after 2 hr; assay type: functional
[9] = tested on: Spodoptera litura; test: Acute insecticidal activity against fifth-instar Spodoptera litura larvae assessed as mortality at 50 ng applied topically measured after 6 hr; assay type: functional, organism-based
[10] = tested on: Spodoptera litura; test: Insecticidal activity against fifth-instar Spodoptera litura larvae assessed as mortality compound applied topically measured after 3 days; assay type: functional
[11] = tested on: Spodoptera litura; test: Acute insecticidal activity against fifth-instar Spodoptera litura larvae assessed as decrease in vigor at 50 to 400 ng applied topically; assay type: functional, organism-based
[12] = tested on: Spodoptera litura; test: Insecticidal activity against fifth-instar Spodoptera litura larvae assessed as abnormal body shape at 1.56 to 25 ng applied topically; assay type: functional, organism-based
[13] = tested on: Spodoptera litura; test: Insecticidal activity against fifth-instar Spodoptera litura larvae assessed as inhibition of ecdysis at 1.56 to 25 ng applied topically measured after 5 days; assay type: functional, organism-based
[14] = tested on: Spodoptera litura; test: Insecticidal activity against fifth-instar Spodoptera litura larvae assessed as burn scar on the area where compound applied at 1.56 to 6.25 ng applied topically measured after 4 days; assay type: functional, organism-based
[15] = tested on: Spodoptera litura; test: Acute insecticidal activity against fifth-instar Spodoptera litura larvae assessed as mortality at 50 ng applied topically measured within 3 days; assay type: functional
[16] = tested on: Spodoptera litura; test: Insecticidal activity against fifth-instar Spodoptera litura larvae assessed as mortality at 1.56 to 25 ng applied topically measured after 5 days; assay type: functional, organism-based
[17] = tested on: Spodoptera litura; test: Insecticidal activity against fifth-instar Spodoptera litura larvae assessed as mortality at 25 ng applied topically measured after 5 days; assay type: functional, organism-based
[18] = tested on: Spodoptera litura; test: Acute insecticidal activity against fifth-instar Spodoptera litura larvae assessed as mortality at 200 ng applied topically measured after 3 hr; assay type: functional
[19] = tested on: Spodoptera litura; test: Insecticidal activity against fifth-instar Spodoptera litura larvae assessed as mortality compound applied topically measured after 2 days; assay type: functional
[20] = tested on: Spodoptera litura; test: Insecticidal activity against fifth-instar Spodoptera litura larvae assessed as inhibition of emergence as adult at 1.56 to 25 ng applied topically; assay type: functional, organism-based
[21] = tested on: Spodoptera litura; test: Insecticidal activity against fifth-instar Spodoptera litura larvae at 1.56 to 25 ng applied topically measured up to 1 day; assay type: functional, organism-based

SMILES: FC(F)(F)c1ccc(OCCCOc2c(Cl)cc(OCC=C(Cl)Cl)cc2Cl)nc1 [PYRIDALYL]
- Activity [1]: Active
- LD50 [2]: 57.3 ng
- Activity [3]: Active
- Activity [4]: Active
- Activity [5]: Active
- Activity [6]: Active
- mortality [7]: 100%
- mortality [8]: 100%
- Activity [9]: inactive
- LD50 [10]: 24.4 ng
- Activity [11]: Active
- inhibition [12]: Active
- Activity [13]: Active
- Activity [14]: Active
- mortality [15]: >50%
- inhibition [16]: Active
- Activity [17]: Active
- mortality [18]: 100%
- LD50 [19]: 50.1 ng
- Activity [20]: Active
- Activity [21]: inactive
